Results reported in ChEMBL document CHEMBL3616373, “Identification of N-sulfonyl-tetrahydroquinolines as RORc inverse agonists” (Bioorg Med Chem Lett, 2015).

Assays:
[1] = target: T1, Nuclear receptor ROR-gamma (Homo sapiens, UniProt P51449); assay: Inverse agonist activity at N-terminal 6xHis-tagged human RORc ligand binding domain (241 to 486) expressed in bacterial expression system assessed as inhibition of SRC1 co-activator peptide recruitment after 3 hrs by TR-FRET analysis; assay type: functional
T1 sequence (P51449 whole entry): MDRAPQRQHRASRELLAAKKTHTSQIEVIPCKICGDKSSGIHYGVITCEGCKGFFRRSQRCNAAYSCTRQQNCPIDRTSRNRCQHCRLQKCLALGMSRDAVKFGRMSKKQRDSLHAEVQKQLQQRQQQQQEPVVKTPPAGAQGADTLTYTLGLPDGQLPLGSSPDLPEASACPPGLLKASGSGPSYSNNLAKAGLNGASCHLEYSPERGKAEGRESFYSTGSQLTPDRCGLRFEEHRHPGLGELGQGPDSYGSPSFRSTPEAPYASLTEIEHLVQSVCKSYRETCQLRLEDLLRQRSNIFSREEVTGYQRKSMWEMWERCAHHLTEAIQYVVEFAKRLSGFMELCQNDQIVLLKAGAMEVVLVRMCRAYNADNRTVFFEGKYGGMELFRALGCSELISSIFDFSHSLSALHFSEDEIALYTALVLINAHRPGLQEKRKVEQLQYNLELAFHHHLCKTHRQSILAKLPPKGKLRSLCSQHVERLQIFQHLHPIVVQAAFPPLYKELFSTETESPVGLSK

[2] = target: T2, Nuclear receptor ROR-gamma (Homo sapiens) (UniProt P51449); assay: Inverse agonist activity at N-terminal 6xHis-tagged human RORc ligand binding domain (241 to 486) expressed in bacterial expression system assessed as inhibition of SRC1 co-activator peptide recruitment after 3 hrs by TR-FRET analysis relative to apo-RORc ligand binding domain
T2 sequence (whole entry): T1 sequence (P51449 whole entry)

[3] = target: T1, Nuclear receptor ROR-gamma; assay: Displacement of [3H2]-25-hydroxycholesterol from N-terminal 6xHis-tagged human RORc ligand binding domain (241 to 486) expressed in bacterial expression system after 3 hrs by scintillation counting analysis

SMILES | EC50 [1] [nM] | Efficacy [2] [%] | IC50 [3] [nM]
CC(=O)Nc1ccc2c(c1)N(S(=O)(=O)c1ccc(F)cc1)CCC2 | > 10000 |  | 
O=C(Nc1ccc2c(c1)N(C(=O)c1ccccc1)CCC2)c1c(F)cccc1F | > 10000 |  | 
O=C(Nc1ccc2c(c1)N(S(=O)(=O)c1cccs1)CCC2)c1c(F)cccc1F | 2100 | -77 | 1100
O=C(Nc1ccc2c(c1)N(S(=O)(=O)c1ccc(F)cc1)CCC2)c1ccc(F)cc1 | 1700 | -75 | 
CS(=O)(=O)N1CCCc2ccc(NC(=O)c3c(F)cccc3F)cc21 | > 10000 |  | 
O=C(Nc1ccc2c(c1)N(S(=O)(=O)c1ccc(F)cc1)CCC2)c1ccccc1F | 420 | -81 | 
O=C(Nc1ccc2c(c1)N(S(=O)(=O)c1ccc(F)cc1)CCC2)C1CC1 | 3600 | -63 | 
Cc1ccc(S(=O)(=O)N2CCCc3ccc(NC(=O)c4c(F)cccc4F)cc32)cc1 | 150 | -95 | 110
O=S(=O)(Nc1ccc2c(c1)N(S(=O)(=O)c1ccc(F)cc1)CCC2)c1ccccc1 | 570 | -77 | 
O=C(Nc1ccc2c(c1)N(S(=O)(=O)c1ccc(F)cc1)CCC2)c1ccncc1 | 6800 | -58 | 
O=C(Nc1ccc2c(c1)N(S(=O)(=O)c1ccc(F)cc1)CCC2)c1cnccn1 | > 10000 |  | 
O=C(Nc1ccc2c(c1)CCN2S(=O)(=O)c1ccc(F)cc1)c1c(F)cccc1F | > 10000 |  | 
O=C(Nc1ccc2c(c1)N(S(=O)(=O)c1ccc(F)cc1)CCC2)c1ccno1 | 7400 | -54 | 
Cc1ccccc1C(=O)Nc1ccc2c(c1)N(S(=O)(=O)c1ccc(F)cc1)CCC2 | 120 | -80 | 
O=C(Nc1ccc2c(c1)CCCCN2S(=O)(=O)c1ccc(F)cc1)c1c(F)cccc1F | > 10000 |  | 
O=C(Nc1ccc2c(c1)N(S(=O)(=O)c1ccc(F)cc1)CCCC2)c1c(F)cccc1F | 230 | -96 | 
O=C(Nc1ccc2c(c1)N(S(=O)(=O)c1ccc(F)cc1)CCC2)c1ccccc1 | 550 | -89 | 
O=C(Nc1ccc2c(c1)N(S(=O)(=O)c1ccc(F)cc1)CCC2)c1cccc(F)c1 | 470 | -69 | 
O=C(Nc1ccc2c(c1)N(S(=O)(=O)c1ccccc1)CCC2)c1c(F)cccc1F | 230 | -91 | 180
O=C(Nc1ccc2c(c1)CCCN2S(=O)(=O)c1ccc(F)cc1)c1c(F)cccc1F | > 10000 |  | 
